Experimental data published in patent publication US6255088A, “Enzymatic sulfation of biomolecules” (The Scripps Research Institute, priority 1999, dated 2001).
Where two headings read alike, the source gives them in different places. One block for each molecule: values may come before it.

How the values were obtained:
[1] = biological target: T1, βAST-IV (Rattus norvegicus, UniProt P17988); test: Reverse-physiological reaction of βAST-IV (PAPS from PAP and p-nitrophenyl sulfate); assay type: biochemical; conditions: 10 mM p-nitrophenyl sulfate, pH 7.0, 25° C.
T1 construct: made in house; host or cells: E. coli BL21(DE3)
T1 sequence (P17988 whole entry): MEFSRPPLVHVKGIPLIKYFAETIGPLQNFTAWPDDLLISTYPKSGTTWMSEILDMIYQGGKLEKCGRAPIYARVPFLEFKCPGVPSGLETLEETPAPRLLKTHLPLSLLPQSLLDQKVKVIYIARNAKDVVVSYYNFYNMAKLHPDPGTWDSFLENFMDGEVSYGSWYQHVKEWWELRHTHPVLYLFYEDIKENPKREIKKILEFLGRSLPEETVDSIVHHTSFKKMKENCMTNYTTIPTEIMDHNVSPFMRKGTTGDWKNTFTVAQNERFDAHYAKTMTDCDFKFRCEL
Description: All capillary zone electrophoresis (CZE) was run in 0.23 M borate in running buffer at pH 7.8. The column was pre-washed with H2 O (1 min), 1 N NaOH (1 min), and running buffer (2 min). The sample was pressure injected at 20 psi sec and electrophoresis was run with 20.0 kV (- to +) at 20° C. with detection at 260 nm. CZE of 1 mM standards PAPS, PAP, and 3'-adenosine monophosphate (3'-AMP) were run to determine retention times. The reverse-physiological reaction assay mixture, a 500 μL solution containing 50 mM bis-tris propane-HCl buffer at pH 7.0, 1 mM 2-mercaptoethanol, 10 mM p-nitrophenyl sulfate, and 1 mM PAP at 25° C., was subjected to CZE prior to addition of enzyme (t=0). 5 mU βAST-IV was added and CZE was repeated 30 minutes after initiation. The reaction was then diluted 100-fold and CZE was run again. A 2.0 μL internal standard of 10 mM PAPS was added, and CZE was repeated.
βAST-IV activity in the reverse-physiological reaction was determined at 25° C. with a total volume of 500 μL. The reverse-physiological assay above was used with varying PAP concentration (15.6, 31.3, 62.5, 125, 250, 500 μM). Measurement of initial velocity was conducted over 10 seconds at 400 nm, and an extinction coefficient of 1064 was used to calculate p-nitrophenol concentration at pH 7.0. […]

[2] = tested on: hydroxysteroid sulfotransferase; conditions: Marcus et al. 1980, cited from earlier work
[3] = biological target: T2, NodST (Sinorhizobium meliloti, UniProt P06236); conditions: Lin et al. 1995; read-out: Ki, PAP inhibition of NodST; cited from earlier work
T2 sequence (P06236 1-247): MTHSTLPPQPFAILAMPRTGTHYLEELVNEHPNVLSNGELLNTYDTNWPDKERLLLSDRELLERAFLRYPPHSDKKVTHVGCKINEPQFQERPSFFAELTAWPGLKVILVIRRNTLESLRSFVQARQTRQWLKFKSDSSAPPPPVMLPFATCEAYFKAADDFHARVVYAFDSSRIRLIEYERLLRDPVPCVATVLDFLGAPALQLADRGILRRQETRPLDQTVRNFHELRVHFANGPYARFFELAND

[4] = biological target: T2, NodST; test: Continuous spectrophotometric coupled-enzyme assay of NodST with βAST-IV PAPS regeneration; assay type: biochemical, Rhizobium melioti
Description: 100 mM bis-tris propane-HCl, pH 7.0, 5 mM 2-mercaptoethanol, 20 μM PAPS, 2 mM p-nitrophenyl sulfate, 3.0 mU NodST, 6.4 mU β-AST IV, and substrate are combined to a total volume of 500 μL. Because commercial PAPS contains significant amounts of PAP, the assay solution is incubated for 30 minutes at 20° C. prior to addition of substrate. The evolution of p-nitrophenol is monitored at 400 nm for 10 minutes.
All reactions were run in a total volume of 500 μL at 25° C. […] The amount of NodST added to each series of acceptor concentrations is varied over 1.2, 1.8, 3.0, and 4.2 mU. Because commercial PAPS contains significant amounts of PAP, the assay solution is incubated for 30 minutes at 20° C. prior to addition of substrate. The evolution of p-nitrophenol is monitored at 400 nm for 10 minutes.
3.0 mU of NodST was used in each reaction. The Km for each series of PAP concentrations was calculated and the values were compared.

[5] = biological target: T2, NodST; conditions: non-coupled radioisotope thin-layer chromatography assay, 100 μM PAPS; read-out: published Km of acceptor for NodST; cited from earlier work
[6] = biological target: T2, NodST; conditions: read-out: Km of NodST for PAPS; preliminary study
Description: To ensure that our coupled assay provides a steady-state PAPS concentration that is much greater than the Km of NodST, the Km experiments above were conducted with varying concentrations of PAPS to verify PAPS saturation. […] A previously published study using a radioisotopic thin-layer chromatography method to determine kinetic values of NodST maintained 100 μM PAPS concentration for all assays. Given that AST-IV maintains a constant concentration of PAPS through recycling, it is disclosed that 20 μM PAPS reaction concentration is sufficient for saturation conditions to maintain steady-state.

[7] = aqueous solution at pH 8.0; cited from earlier work

Structure (SMILES): Nc1ncnc2c1ncn2[C@@H]1O[C@H](COP(=O)(O)O)[C@@H](OP(=O)(O)O)[C@H]1O [PAP, adenosine 3',5'-diphosphate]
- Vmax of βAST-IV as a function of PAP concentration [1]: 6.04 ± 0.24 µmol/min
- enzyme product inhibition of sulfotransferases [2]: low-micromolar levels
- Ki ([2]; read-out: Ki, PAP inhibition of hydroxysteroid sulfotransferase): 14 µM
- Ki [3]: 0.1 µM

Structure (SMILES): Nc1ncnc2c1ncn2[C@@H]1O[C@H](COP(=O)(O)OS(=O)(=O)O)[C@@H](OP(=O)(O)O)[C@H]1O [PAPS, 3'-phosphoadenosine-5'-phosphosulfate]
- Km [6]: < 0.1 µM
- half-life of PAPS in aqueous solution [7]: approximately 20 hours

Structure (SMILES): CC(=O)N[C@H]1[C@H](O[C@H]2[C@H](O)[C@@H](NC(C)=O)[C@H](O[C@H]3[C@H](O)[C@@H](NC(C)=O)C(O)O[C@@H]3CO)O[C@@H]2CO)O[C@H](CO)[C@@H](O[C@@H]2O[C@H](CO)[C@@H](O[C@@H]3O[C@H](CO)[C@@H](O)[C@H](O)[C@H]3NC(C)=O)[C@H](O)[C@H]2NC(C)=O)[C@@H]1O (stereo partly drawn) [N,N',N",N'",N""-pentaacetylchito-pentaose]
- Km [5]: 190 µM

The next lines start with results.

- kcat of acceptor with NodST ([4]; apparent value, coupled assay, 20 μM PAPS, pH 7.0): 0.328 s⁻¹
- acceptor specificity for NodST, ranking among substrates ([4]; coupled assay, among N-acetyl chitoses, LacNAc and LacNAc dimer): best substrate
Structure (SMILES): CC(=O)N[C@H]1[C@H](O[C@H]2[C@H](O)[C@@H](NC(C)=O)C(O)O[C@@H]2CO)O[C@H](CO)[C@@H](O[C@@H]2O[C@H](CO)[C@@H](O[C@@H]3O[C@H](CO)[C@@H](O)[C@H](O)[C@H]3NC(C)=O)[C@H](O)[C@H]2NC(C)=O)[C@@H]1O (stereo partly drawn) [N,N',N",N'"-tetraacetylchitotetraose]
- Km [5]: 140 µM

- kcat of acceptor with NodST, PAPS concentration study ([4]; 20, 40 and 100 μM PAPS, all three within 10% variation, 3.0 mU NodST): ~23.6 s⁻¹
Structure (SMILES): CC(=O)N[C@H]1[C@H](O[C@H]2[C@H](O)[C@@H](NC(C)=O)C(O)O[C@@H]2CO)O[C@H](CO)[C@@H](O[C@@H]2O[C@H](CO)[C@@H](O)[C@H](O)[C@H]2NC(C)=O)[C@@H]1O (stereo partly drawn) [N,N',N"-triacetylchitotriose]

- increase in acceptor specificity from LacNAc to the LacNAc dimer ([4]; NodST, coupled assay): sixty-fold increase
Structure (SMILES): CC(=O)N[C@H]1[C@H](O[C@H]2[C@@H](O)[C@@H](CO)O[C@@H](O[C@H]3[C@H](O)[C@@H](NC(C)=O)C(O)O[C@@H]3CO)[C@@H]2O)O[C@H](CO)[C@@H](O[C@@H]2O[C@H](CO)[C@H](O)[C@H](O)[C@H]2O)[C@@H]1O (stereo partly drawn) [LacNAc dimer, Galβ(1,4)GlcNAcβ(1,3) Galβ(1,4)GlcNAc]
